Here are results for 17 molecules from US8258122B2, “3-([1,2,4]triazolo[4,3-a]pyridin-7-yl)benzamide derivatives” (Almirall, S.A., priority 2007, dated 2012).

The target of the test is T1, human p38alfa (SAPKa) enzyme (Homo sapiens, UniProt Q16539).
T1 construct: purchased University of Dundee
T1 sequence (Q16539 whole entry): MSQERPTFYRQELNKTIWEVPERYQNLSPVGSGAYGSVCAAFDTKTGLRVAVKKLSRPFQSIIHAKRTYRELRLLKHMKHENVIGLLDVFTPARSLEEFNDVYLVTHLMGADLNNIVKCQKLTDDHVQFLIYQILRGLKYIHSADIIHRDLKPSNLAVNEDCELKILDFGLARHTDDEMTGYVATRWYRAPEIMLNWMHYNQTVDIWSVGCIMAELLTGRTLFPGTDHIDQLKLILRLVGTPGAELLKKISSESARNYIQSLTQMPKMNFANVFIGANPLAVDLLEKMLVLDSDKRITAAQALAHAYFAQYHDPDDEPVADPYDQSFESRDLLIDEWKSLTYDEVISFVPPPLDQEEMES
Description: p38 enzymatic inhibition assay (FRET, biotinylated ATF2 substrate). To be noted: 1 h pre-incubation; ATF2 0.62 μM, ATP 60 μM; 25° C.; read-out: p38α IC50. It counts as biochemical. The protocol: Enzymatic activity assay was performed in 96-well microtiter plates (Corning, catalog number # 3686) using a total volume of 50 μl of an assay buffer composed of 50 mM HEPES pH 7.5, 10 mM MgCl2, 1.75 mM Na3VO4.
Various concentrations of the test compound or vehicle controls were pre-incubated for one hour with 0.055 μg/ml of the human p38alfa (SAPKa) enzyme (obtained from University of Dundee). The reaction started by addition of biotinylated ATF2 substrate and ATP in concentrations around their Km values (final concentration 0.62 μM and 60 μM respectively) and took place for one hour at 25° C. Addition of the detection reagents, streptavidin—XL665 and anti-phosphoresidue antibody coupled to Europium cryptate, caused the juxtaposition of the cryptate and the XL665 fluorophore, resulting in fluorescence energy transfer (FRET). The FRET intensity depends on the amount of bounded cryptate antibody, which is proportional to the extent of substrate phosphorylation. FRET intensity was measured using Victor 2V spectrofluorometer.
Data were analyzed by non-linear regression (Hill equation) to generate a dose-response curve. The calculated IC50 value is the concentration of the test compound that caused a 50% decrease in the maximal FRET intensity.
One may read the IC50 as the point on the concentration scale where inhibition reaches its midpoint. Consider `Cc1ccc(C(=O)NC2CC2)cc1-c1ccn2c(C(C)(C)C)nnc2c1` [Example 1, 3-(3-tert-Butyl-[1,2,4]triazolo[4,3-a]pyridin-7-yl)-N-cyclopropyl-4-methylbenzamide], for which the IC50 was 16 nM.
The value for `Cc1ccc(C(=O)NC2CC2)cc1-c1ccn2c(-c3ccccc3Cl)nnc2c1` [Example 6, 3-(3-(2-Chlorophenyl)-[1,2,4]triazolo[4,3-a]pyridin-7-yl)-N-cyclopropyl-4-methylbenzamide] was 6 nM.
In the case of `Cc1ccc(C(=O)NC2CC2)cc1-c1ccn2c(NCC3CC3)nnc2c1` [Example 7, N-Cyclopropyl-3-(3-(cyclopropylmethylamino)-[1,2,4]triazolo[4,3-a]pyridin-7-yl)-4-methylbenzamide] it was 75 nM; in that of `Cc1c(F)cc(C(=O)NC2CC2)cc1-c1ccn2c(C(C)(C)C)nnc2c1` [Example 9, 3-(3-tert-Butyl-[1,2,4]triazolo[4,3-a]pyridin-7-yl)-N-cyclopropyl-5-fluoro-4-methylbenzamide], 2 nM; in that of `Cc1ccc(C(=O)NC2CC2)cc1-c1ccn2c(N3CCCC3)nnc2c1` [Example 16, N-Cyclopropyl-4-methyl-3-(3-pyrrolidin-1-yl-[1,2,4]triazolo[4,3-a]pyridin-7-yl)-benzamide], 83 nM.
In the case of `Cc1ccc(C(=O)NC2CC2)cc1-c1cc2nnc(C(C)(C)C)n2cc1F` [Example 18, 3-(3-tert-Butyl-6-fluoro-[1,2,4]triazolo[4,3-a]pyridin-7-yl)-N-cyclopropyl-4-methylbenzamide] it was 3.2 nM.
For the molecule `Cc1c(F)cc(C(=O)NC2CC2)cc1-c1cc2nnc(C(C)(C)C)n2cc1F` [Example 19, 3-(3-tert-Butyl-6-fluoro-[1,2,4]triazolo[4,3-a]pyridin-7-yl)-N-cyclopropyl-5-fluoro-4-methylbenzamide], the half-maximal inhibitory concentration (IC50) came to 2 nM.
With `Cc1c(F)cc(C(=O)NC2CC2)cc1-c1c(F)cn2c(C3CC3)nnc2c1F` [Example 23, N-cyclopropyl-3-(3-cyclopropyl-6,8-difluoro[1,2,4]triazolo[4,3-a]pyridin-7-yl)-5-fluoro-4-methylbenzamide], the IC50 turned out to be 10 nM.
For `Cc1c(F)cc(C(=O)NC2CC2)cc1-c1ccn2c(C(C)C)nnc2c1` [Example 28, N-cyclopropyl-3-fluoro-5-(3-isopropyl[1,2,4]triazolo[4,3-a]pyridin-7-yl)-4-methylbenzamide], the IC50 came out at 3 nM.
Turning to `Cc1ccc(C(=O)NC2CC2)cc1-c1ccn2c(-c3ccncc3Cl)nnc2c1` [Example 30, 3-[3-(3-Chloropyridin-4-yl)[1,2,4]triazolo[4,3-a]pyridin-7-yl]-N-cyclopropyl-4-methylbenzamide], the half-inhibitory concentration (IC50) turned out to be 38 nM.
Regarding `Cc1c(F)cc(C(=O)NC2CC2)cc1-c1ccn2c(-c3ccncc3Cl)nnc2c1` [Example 31, 3-[3-(3-Chloropyridin-4-yl)[1,2,4]triazolo[4,3-a]pyridin-7-yl]-N-cyclopropyl-5-fluoro-4-methylbenzamide], the half-maximal inhibitory concentration (IC50) was 0.3 nM.
In the case of `Cc1c(F)cc(C(=O)NC2CC2)cc1-c1ccn2c(C3CCOCC3)nnc2c1` [Example 33, N-Cyclopropyl-3-fluoro-4-methyl-5-[3-(tetrahydro-2H-pyran-4-yl)[1,2,4]triazolo[4,3-a]pyridin-7-yl]benzamide] it was 30 nM.
In the case of `CO[C@@H](C)c1nnc2cc(-c3cc(C(=O)NC4CC4)ccc3C)ccn12` [Example 38, N-Cyclopropyl-3-{3-[(1S)-1-methoxyethyl][1,2,4]triazolo[4,3-a]pyridin-7-yl}-4-methylbenzamide] it was 38 nM.
On to `Cc1c(F)cc(C(=O)NC2CC2)cc1-c1ccn2c(C(=O)N3CCCC3)nnc2c1` [Example 42, N-Cyclopropyl-3-fluoro-4-methyl-5-[3-(pyrrolidin-1-ylcarbonyl)[1,2,4]triazolo[4,3-a]pyridin-7-yl]benzamide], for which the 50% inhibitory concentration (IC50) was found to be 46 nM.
`Cc1c(F)cc(C(=O)NC2CC2)cc1-c1ccn2c(C(C)(C)O)nnc2c1` [Example 45, N-Cyclopropyl-3-fluoro-5-[3-(1-hydroxy-1-methylethyl)[1,2,4]triazolo[4,3-a]pyridin-7-yl]-4-methylbenzamide]: the IC50 was found to be 3.1 nM.
The value for `Cc1c(F)cc(C(=O)NC2CC2)cc1-c1c(F)cn2c(C(C)(C)N)nnc2c1F` [Example 46, 3-[3-(1-Amino-1-methylethyl)-6,8-difluoro[1,2,4]triazolo[4,3-a]pyridin-7-yl]-N-cyclopropyl-5-fluoro-4-methylbenzamide] was 11.9 nM.
Take `Cc1c(F)cc(C(=O)NC2CC2)cc1-c1c(F)cn2c(C(C)(C)N(C)C)nnc2c1F` [Example 47, N-Cyclopropyl-3-{3-[1-(dimethylamino)-1-methylethyl]-6,8-difluoro[1,2,4]triazolo-[4,3-a]pyridin-7-yl}-5-fluoro-4-methylbenzamide]: the IC50 amounted to 15.4 nM.
